molecular target: T1, human PI3Kbeta p110 catalytic subunit (Rat-1 pBABEpuro Myr-HA-hp110 beta) (Homo sapiens, UniProt P42338); test: Cellular assay PI3Kbeta (p-Akt(S473) SureFire, Rat-1_PI3beta cells); format: cell-based; conditions: fourth measurement, outlier; read-out: Rat1-PI3Kb IC50, fourth measurement (footnote)
T1 construct: Myr (myristoylation signal) (N); HA (N); expressed in transfected cells; host or cells: Rat-1
Description: AlphaScreen (Amplified Luminescent Proximity Homogeneous Assay, ALPHA, Perkin Elmer) is a non-radioactive bead-based proximity assay technology to study biomolecular interactions in a homogenous microtiter plate format. The brand name SureFire denotes AlphaScreen assays that are adapted to quantify the phosphorylation of endogenous cellular proteins in cell lysates, by using matched antibody pairs, which consist of an anti-phospho-kinase and an anti-kinase antibody. The assay allows characterization of kinase signaling in cells as well as measurement of kinase inhibitor effects. The AlphaScreen technology provides several advantages over standard assay techniques such as ELISA, as it avoids time-consuming washing procedures and reduces plate handling. Furthermore, it is miniaturizable at least to a 384-well format and provides sensitivity down to the femtomolar range, dependent on the affinity of the antibodies included in the individual AlphaScreen SureFire assay kit. High sensitivity is reached by an intrinsic amplification mechanism, which involves production of singlet oxygen molecules. SureFire assay kits are commercially available for specific targets and include pairs of validated antibodies (PerkinElmer). This report describes common procedures applied for AlphaScreen SureFire assays and respective semi-automated steps for routine kinase inhibitor profiling in cell-based assays.
The Rat-1 cell lines stably overexpressing activated PI3K class I isoforms Rat-1 pBABEpuro Myr-HA-hp110 delta (Rat-1_PI3Kdelta) and Rat-1 pBABEpuro Myr-HA-hp110alpha (Rat-1_PI3Kalpha) and Rat-1 pBABEpuro Myr-HA-hp110 beta (Rat-1_PI3beta) were prepared as described (Maira S M, Stauffer F, Brueggen J, Furet P, Schnell C, Fritsch C, Brachmann S, Chène P, de Pover A, Schoemaker K, Fabbro D, Gabriel D, Simonen M, Murphy L, Finan P, Sellers W, García-Echeverría C (2008), Mol Cancer Ther. 7:1851-63 and Maira S M, Pecchi S, Brueggen J, Huh K, Schnell C, Fritsch C, Nagel T, Wiesmann M, Brachmann S, Dorsch M, Chène P, Schoemaker K, De Pover A, Menezes D, Fabbro D, Sellers W, García-Echeverría C, Voliva C F (2011), Mol. Cancer Ther., accepted). All cell lines were cultivated in complete growth medium (DMEM high glucose, 10% (v/v) fetal bovine serum, 1% (v/v) MEM NEAA, 10 mM HEPES, 2 mM L-glutamine, puromycin (10 μg/mL for Rat-1_PI3Kdelta and Rat-1_PI3Kalpha, 4 ug/mL for Rat-1_PI3beta), 1% (v/v) Pen/Strep) to 90% confluency at 37° C./5% CO2/90% humidity in a humidified CO2 incubator and were split twice a week.
The following materials were used for p-AKT(S473) detection in Rat-1 cell lysates: Dulbecco's modified Eagle's medium (DMEM) high glucose (Gibco Invitrogen, Basel, Switzerland, Cat. No. 41965), Heat Inactivated Fetal Bovine Serum, Qualified (HI FBS; Gibco Invitrogen, Basel, Switzerland, Lot. No. 16140), MEM non essential amino acids (NEAA; Gibco Invitrogen, Basel, Switzerland, Cat. No. 11140), HEPES (Gibco Invitrogen, Basel, Switzerland, Cat. No. 15630), Penicillin/Streptomycin (Pen/Strep, 100×; Gibco Invitrogen, Basel, Switzerland, Cat. No. 15140-122), L-Glutamine (Gibco Invitrogen, Basel, Switzerland, Cat. No. 25030), Puromycin (Sigma Aldrich, Buchs, Switzerland, Cat. No. P9620), DMSO (MERCK, Dietikon, Switzerland, Cat. No. 8.02912.2500), H2O, MilliQ-H2O unless otherwise stated (MILLIPORE QGARDOOR1, Millipore, Zug, Switzerland), Bovine serum albumine (BSA; Sigma Aldrich, Buchs, Switzerland Cat. No. A8412), SureFire p-Akt 1/2 (Ser473) Assay Kit (PerkinElmer, Schwerzenbach, Switzerland, Cat. No. TGRAS50K).
The p-Akt(S473) SureFire assay measures the phosphorylation of endogenous cellular Akt 1/2 at Ser473 in cell lysates. Using Rat-1 cells stably expressing myr-HA-tagged versions of the human PI3Kdelta, PI3Kalpha, or PI3Kbeta p110 catalytic subunit isoforms, the assay was developed as a two-plate protocol in a 384-well format.

T1 sequence (P42338 whole entry): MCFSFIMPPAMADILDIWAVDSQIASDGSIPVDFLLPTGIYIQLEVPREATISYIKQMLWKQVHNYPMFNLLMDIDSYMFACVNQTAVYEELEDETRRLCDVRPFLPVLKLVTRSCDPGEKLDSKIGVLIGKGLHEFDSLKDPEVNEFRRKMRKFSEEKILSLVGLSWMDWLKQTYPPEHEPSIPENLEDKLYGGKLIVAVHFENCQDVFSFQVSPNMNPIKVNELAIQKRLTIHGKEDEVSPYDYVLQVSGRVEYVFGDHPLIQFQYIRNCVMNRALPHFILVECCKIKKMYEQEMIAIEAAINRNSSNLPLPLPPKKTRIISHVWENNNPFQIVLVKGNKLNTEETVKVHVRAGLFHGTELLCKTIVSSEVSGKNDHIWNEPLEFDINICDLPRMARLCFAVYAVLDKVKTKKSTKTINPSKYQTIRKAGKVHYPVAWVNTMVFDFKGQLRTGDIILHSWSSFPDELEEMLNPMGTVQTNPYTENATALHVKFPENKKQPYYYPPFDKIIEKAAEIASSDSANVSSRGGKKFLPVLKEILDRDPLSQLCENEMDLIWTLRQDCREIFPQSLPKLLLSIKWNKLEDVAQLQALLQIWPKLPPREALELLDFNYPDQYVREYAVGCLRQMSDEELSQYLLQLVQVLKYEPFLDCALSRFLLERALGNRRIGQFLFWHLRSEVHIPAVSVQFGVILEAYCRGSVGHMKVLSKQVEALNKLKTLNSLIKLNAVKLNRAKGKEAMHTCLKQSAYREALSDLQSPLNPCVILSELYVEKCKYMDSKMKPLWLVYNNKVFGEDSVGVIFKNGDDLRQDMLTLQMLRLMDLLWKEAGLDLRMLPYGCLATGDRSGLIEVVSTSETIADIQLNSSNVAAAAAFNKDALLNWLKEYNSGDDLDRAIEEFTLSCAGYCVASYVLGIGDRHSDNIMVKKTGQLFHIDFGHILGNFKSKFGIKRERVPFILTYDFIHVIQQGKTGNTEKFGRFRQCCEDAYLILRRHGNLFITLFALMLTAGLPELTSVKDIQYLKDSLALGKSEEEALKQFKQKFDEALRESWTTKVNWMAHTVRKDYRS
T1 sequence (Q63787 whole entry partner): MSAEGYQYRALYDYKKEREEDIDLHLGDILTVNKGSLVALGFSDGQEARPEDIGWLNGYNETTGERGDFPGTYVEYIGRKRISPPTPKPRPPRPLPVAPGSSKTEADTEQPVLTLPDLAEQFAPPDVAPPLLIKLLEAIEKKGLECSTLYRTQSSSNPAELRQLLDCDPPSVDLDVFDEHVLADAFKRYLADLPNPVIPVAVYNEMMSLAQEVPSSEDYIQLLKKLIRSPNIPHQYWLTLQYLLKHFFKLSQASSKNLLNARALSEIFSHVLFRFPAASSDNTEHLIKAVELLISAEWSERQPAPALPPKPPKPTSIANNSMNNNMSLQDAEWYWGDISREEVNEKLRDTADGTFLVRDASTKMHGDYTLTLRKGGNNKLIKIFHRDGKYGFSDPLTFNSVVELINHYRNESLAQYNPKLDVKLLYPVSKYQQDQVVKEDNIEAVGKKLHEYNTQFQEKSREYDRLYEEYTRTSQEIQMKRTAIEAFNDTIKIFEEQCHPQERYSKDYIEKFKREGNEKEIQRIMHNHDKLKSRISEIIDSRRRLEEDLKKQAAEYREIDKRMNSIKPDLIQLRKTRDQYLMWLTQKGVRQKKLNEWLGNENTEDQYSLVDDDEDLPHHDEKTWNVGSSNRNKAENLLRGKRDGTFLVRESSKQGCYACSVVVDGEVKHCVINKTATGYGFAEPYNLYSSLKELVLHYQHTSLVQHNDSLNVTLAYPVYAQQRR

SMILES	IC50 [nM]
C[C@H]1COC(=O)N1c1cc(-c2cnc(N)nc2C(F)(F)F)nc(N2CCOCC2)n1 [Example 1, (S)-3-(2′-Amino-2-morpholin-4-yl-4′-trifluoromethyl-[4,5′]bipyrimidinyl-6-yl)-4-methyl-oxazolidin-2-one]	3900

same assay, conditions: p-Akt(S473), 1 h compound treatment; read-out: Rat1-PI3Kb/ IC50

IC50 [nM]	SMILES
75	C[C@H]1C(CC(C)(C)O)OC(=O)N1c1cc(-c2cnc(N)nc2C(F)(F)F)nc(N2CCOCC2)n1 (mixture of isomers) [Example 26, (4S,5R)- and (4S,5S)-3-(2′-amino-2-morpholino-4′-(trifluoromethyl)-[4,5′-bipyrimidin]-6-yl)-5-(2-hydroxy-2-methylpropyl)-4-methyloxazolidin-2-one]
34	C[C@@H](O)C[C@H]1OC(=O)N(c2cc(-c3cnc(N)nc3C(F)(F)F)nc(N3CCOCC3)n2)[C@H]1C (single isomer, unassigned) [Example 24]
43	C[C@H](O)CC1OC(=O)N(c2cc(-c3cnc(N)nc3C(F)(F)F)nc(N3CCOCC3)n2)[C@H]1C (single isomer, unassigned) [Example 25]
65	C[C@H]1COC(=O)N1c1cc(-c2cnc(N)nc2C(F)(F)F)nc(N2CCOCC2)n1 [Example 1, (S)-3-(2′-Amino-2-morpholin-4-yl-4′-trifluoromethyl-[4,5′]bipyrimidinyl-6-yl)-4-methyl-oxazolidin-2-one]
147	C[C@@H]1OC(=O)N(c2cc(-c3cnc(N)nc3C(F)(F)F)nc(N3CCOCC3)n2)[C@H]1CO [Example 6]
108	[2H]C1([2H])OC([2H])([2H])C([2H])([2H])N(c2nc(-c3cnc(N)nc3C(F)(F)F)cc(N3C(=O)O[C@H](C)[C@@H]3CO)n2)C1([2H])[2H] [Example 8]
173	C[C@H]1OC(=O)N(c2cc(-c3cnc(N)nc3C(F)(F)F)nc(N3CCOC[C@@H]3C)n2)[C@H]1CO [Example 10, (4S,5R)-3-[2′-Amino-2-((S)-3-methyl-morpholin-4-yl)-4′-trifluoromethyl-[4,5′]bipyrimidinyl-6-yl]-4-hydroxymethyl-5-methyl-oxazolidin-2-one]
123	C[C@H]1OC(=O)N(c2cc(-c3cnc(N)nc3C(F)(F)F)nc(N3CCOCC3)n2)[C@H]1COC=O [Example 12, Formic acid (4S,5R)-3-(2′-amino-2-morpholin-4-yl-4′-trifluoromethyl-[4,5′]bipyrimidinyl-6-yl)-5-methyl-2-oxo-oxazolidin-4-ylmethyl ester]
240	C[C@H]1COCCN1c1nc(-c2cnc(N)nc2C(F)(F)F)cc(N2C(=O)OC[C@@H]2C)n1 [Example 13, (S)-3-[2′-Amino-2-((S)-3-methyl-morpholin-4-yl)-4′-trifluoromethyl-[4,5′]bipyrimidinyl-6-yl]-4-methyl-oxazolidin-2-one]
114	C[C@H]1[C@H](CO)OC(=O)N1c1cc(-c2cnc(N)nc2C(F)(F)F)nc(N2CCOCC2)n1 [Example 15, (4S,5R)-3-(2′-Amino-2-morpholin-4-yl-4′-trifluoromethyl-[4,5′]bipyrimidinyl-6-yl)-5-hydroxymethyl-4-methyl-oxazolidin-2-one]
88	C[C@H]1OC(=O)N(c2cc(-c3cnc(N)nc3C(F)(F)F)nc(N3CCOCC3)n2)[C@H]1CO [Example 18, (4S,5R)-3-(2′-Amino-2-morpholin-4-yl-4′-trifluoromethyl-[4,5′]bipyrimidinyl-6-yl)-4-hydroxymethyl-5-methyl-oxazolidin-2-one]
71	C[C@H]1[C@@H](CO)OC(=O)N1c1cc(-c2cnc(N)nc2C(F)(F)F)nc(N2CCOCC2)n1 [Example 19, (4S,5S)-3-(2′-Amino-2-morpholin-4-yl-4′-trifluoromethyl-[4,5′]bipyrimidinyl-6-yl)-5-hydroxymethyl-4-methyl-oxazolidin-2-one]

More lines, now with the values behind:

SMILES	IC50 [nM]
CC1(CO)COC(=O)N1c1cc(-c2cnc(N)nc2C(F)(F)F)nc(N2CCOCC2)n1 (racemic) [Example 3, 3-(2′-amino-2-morpholino-4′-(trifluoromethyl)-4,5′-bipyrimidin-6-yl)-4-(hydroxymethyl)-4-methyloxazolidin-2-one]	193
Nc1ncc(-c2cc(N3C(=O)O[C@@H]4[C@@H](O)CC[C@@H]43)nc(N3CCOCC3)n2)c(C(F)(F)F)n1 (racemic) [Example 22, (3aR*,6R*,6aR*)-3-(2′-Amino-2-morpholino-4′-(trifluoromethyl)-[4,5′-bipyrimidin]-6-yl)-6-hydroxyhexahydro-2H-cyclopenta[d]oxazol-2-one]	77
Nc1ncc(-c2cc(N3C(=O)OC4C(O)CCC43)nc(N3CCOCC3)n2)c(C(F)(F)F)n1 (single isomer, unassigned) [Example 22A]	60
Nc1ncc(-c2cc(N3C(=O)OC4C(O)CCC43)nc(N3CCOCC3)n2)c(C(F)(F)F)n1 (single isomer, unassigned) [Example 22B]	125
CC1(C)OC(=O)N(c2cc(-c3cnc(N)nc3C(F)(F)F)nc(N3CCOCC3)n2)[C@H]1CO [Example 2, (S)-3-(2′-Amino-2-morpholin-4-yl-4′-trifluoromethyl-[4,5′]bipyrimidinyl-6-yl)-4-hydroxymethyl-5,5-dimethyl-oxazolidin-2-one]	278
Nc1ncc(-c2cc(N3C(=O)O[C@H]4CCCC[C@@H]43)nc(N3CCOCC3)n2)c(C(F)(F)F)n1 [Example 4, (3aS,7aS)-3-(2′-Amino-2-morpholin-4-yl-4′-trifluoromethyl-[4,5′]bipyrimidinyl-6-yl)-hexahydro-benzooxazol-2-one]	183
COC[C@H]1COC(=O)N1c1cc(-c2cnc(N)nc2C(F)(F)F)nc(N2CCOCC2)n1 [Example 5, (S)-3-(2′-Amino-2-morpholin-4-yl-4′-trifluoromethyl-[4,5′]bipyrimidinyl-6-yl)-4-methoxymethyl-oxazolidin-2-one]	314
Nc1ncc(-c2cc(N3C(=O)OC[C@@H]3CCO)nc(N3CCOCC3)n2)c(C(F)(F)F)n1 [Example 9, (S)-3-(2′-Amino-2-morpholin-4-yl-4′-trifluoromethyl-[4,5′]bipyrimidinyl-6-yl)-4-(2-hydroxy-ethyl)-oxazolidin-2-one]	226
Nc1ncc(-c2cc(N3CCOC3=O)nc(N3CCOCC3)n2)c(C(F)(F)F)n1 [Example 11, 3-(2′-Amino-2-morpholin-4-yl-4′-trifluoromethyl-[4,5′]bipyrimidinyl-6-yl)-oxazolidin-2-one, reference compound]	184
Nc1ncc(-c2cc(N3C[C@@H](CO)OC3=O)nc(N3CCOCC3)n2)c(C(F)(F)F)n1 [Example 14, (S)-3-(2′-Amino-2-morpholin-4-yl-4′-trifluoromethyl-[4,5′]bipyrimidinyl-6-yl)-5-hydroxymethyl-oxazolidin-2-one]	157
C[C@H]1CN(c2cc(-c3cnc(N)nc3C(F)(F)F)nc(N3CCOCC3)n2)C(=O)O1 [Example 16, (S)-3-(2′-Amino-2-morpholin-4-yl-4′-trifluoromethyl-[4,5′]bipyrimidinyl-6-yl)-5-methyl-oxazolidin-2-one]	160
[2H]C1([2H])OC([2H])([2H])C([2H])([2H])N(c2nc(-c3cnc(N)nc3C(F)(F)F)cc(N3C(=O)OC[C@@H]3C)n2)C1([2H])[2H] [Example 17, (S)-3-(2′-amino-2-D8-morpholino-4′-(trifluoromethyl)-[4,5′-bipyrimidin]-6-yl)-4-methyloxazolidin-2-one]	171

Source: patent US8865894B2, “Oxazolidin-2-one compounds and uses thereof” (Novartis AG, priority 2012, dated 2014)
